Earlier results as cited in patent publication US20080153167A1, “In vivo amplification of neural progenitor cells” (priority 2006, published 2008).

Tested on: PDGF driven tumors
Conditions: Shih et al. 2004

## Clc1ccc(Nc2nnc(Cc3ccncc3)c3ccccc23)cc1 [PTK787]
  effect on PDGF driven tumors: caused high-grade tumors to acquire low-grade histology, but it did not completely eradicate tumor growth
